The target of one test is T1, GcoA-F169A and GcoB (Amycolatopsis sp., UniProt P0DPQ7, F169A/H210Q).
T1 construct: GST (N, cleaved yes); made in house; host or cells: E. coli Rosetta 2 (DE3)
The test can be described thus: Uncoupling reactions: endpoint formaldehyde referenced to NADH consumed. The format is biochemical. The note with it: for % Formaldehyde produced: referenced to NADH consumed; for Coupling efficiency: GcoA-F169A-catalyzed reaction. The procedure: The ^a in Table 3 notes that 0.2 μM GcoA-F169A and GcoB were reacted with 100 μg catalase, 100 or 200 μM NADH, and 100 μM substrate in 25 mM HEPES, 50 mM NaCl, pH 7.5, 25° C., 210 μM O2. Endpoint analyses were done to quantify formaldehyde produced, which was then referenced to NADH consumed. The ^b in Table 3 notes that the same reaction done above was repeated to quantify H2O2 produced using the Amplex Red/HRP assay. The amount of hydrogen peroxide was then referenced to NADH consumed.
Formaldehyde determination. A colorimetric assay using tryptophan can be used to quantify the amount of formaldehyde produced in F169 GcoA/B reactions with guaiacol, syringol, or 3MC. 0.2 μM each of F169 GcoA mutants and GcoB were dissolved in air-saturated buffer (25 mM HEPES, 50 mM NaCl) in a cuvette at pH 7.5, 25° C. 100 μg/mL catalase was added to each reaction to capture any H2O2 formed during the uncoupled reaction. Two hundred μM NADH was added and the background rate recorded. One hundred (guaiacol, syringol, or 3MC) or 200 (syringol) μM of substrate was then added and the reaction monitored until there was no more change, due to either substrate, NADH or O2 depletion, whichever occurred first. 200 μL of the reaction was then quenched by adding 200 μL of a 0.1% tryptophan solution in 50% ethanol and 200 μL of 90% sulfuric acid. Upon thorough mixing, 40 μL of 1% FeCl3 was added. The solution was then incubated in a heating block for 90 min at 70° C. After cooling, the absorbance was read at 575 nm and the concentration of formaldehyde was calculated by using ε575 nm=4.2 mM^−1 cm^−1, obtained with formaldehyde as a standard. A negative control included everything but the substrate and was used as a baseline.

A further test addresses T2, GcoA-F169A (Amycolatopsis sp., UniProt P0DPQ7, F169A/H210Q).
T2 construct: GST (N, cleaved yes); made in house; host or cells: E. coli Rosetta 2 (DE3)
The test can be described thus: Rate of aromatic substrate disappearance by discontinuous HPLC. The format is biochemical. The note with it: GcoA-F169A/GcoB, substrate disappearance over time. The procedure:
To address whether guaiacol and/or syringol would serve as substrates of GcoA-F169A, the disappearance of NADH (UV/vis) and aromatic substrate (HPLC) was monitored over time (FIG. 1). The rates of organic substrate and NADH consumption were robust and the same within error, regardless of whether guaiacol or syringol was used (5.3±0.3 μM guaiacol s^−1 μmol GcoA-F169A^−1, 5.8±0.8 μM NADH s^−1 μmol GcoA-F169A-1; 4.1±0.3 μM syringol s^−1 μmol GcoA-F169A^−1, 5.1±0.8 μM NADH s^−1 μmol GcoA-F169A^−1).
HPLC for product identification and specific activity measurement. HPLC was used to verify the O-demethylated product of GcoA-F169A GcoA/GcoB with guaiacol, syringol, or 3MC. In addition, discontinuous HPLC was used to determine the specific activity of aromatic […] disappearance.
Analyte analysis of the above end-point reactions (100 μM guaiacol, syringol, or 3MC, or 200 μM syringol) was performed on an Agilent 1100 LC system (Agilent Technologies) equipped with a G1315B diode array detector (DAD). Each sample and standard was injected at a volume of 10 μL onto a Symmetry C18 column 5 μm, 4.6×150 mm column (Waters). The column temperature was maintained at 30° C. and the buffers used to separate the analytes of interest was 0.01% TFA in water (A)/acetonitrile (B). The separation was carried out using a gradient program of: (A)=99% and (B)=1% at time t=0 min; (A)=99% and (B)=1% at time t=2 min, (A)=50% and (B)=50% at t=8 min; (A)=1% and (B)=99% at t=8.01 min; (A)=99% and (B)=1% at t=10.01 min; (A)=99% and (B)=1% at t=11 min. The flow rate was held constant at 1.5 mL min^−1, resulting in a run time of 11 minutes. DAD wavelengths of 210 and 325 nm were used for analysis of the analytes of interest. […] Integrated intensities vs [standards] were plotted and the resulting standard curves used to quantify the reactants and products.
For specific activity determination, 300 μM guaiacol, syringol, or 3MC were added from 0.1 M DMSO stocks to air saturated buffer (25 mM HEPES, 50 mM NaCl, pH 7.5), with a final volume of 1 mL. The concentration of analyte was measured via the above HPLC method. […]

T1 sequence (P0DPQ7 whole entry F169A/H210Q): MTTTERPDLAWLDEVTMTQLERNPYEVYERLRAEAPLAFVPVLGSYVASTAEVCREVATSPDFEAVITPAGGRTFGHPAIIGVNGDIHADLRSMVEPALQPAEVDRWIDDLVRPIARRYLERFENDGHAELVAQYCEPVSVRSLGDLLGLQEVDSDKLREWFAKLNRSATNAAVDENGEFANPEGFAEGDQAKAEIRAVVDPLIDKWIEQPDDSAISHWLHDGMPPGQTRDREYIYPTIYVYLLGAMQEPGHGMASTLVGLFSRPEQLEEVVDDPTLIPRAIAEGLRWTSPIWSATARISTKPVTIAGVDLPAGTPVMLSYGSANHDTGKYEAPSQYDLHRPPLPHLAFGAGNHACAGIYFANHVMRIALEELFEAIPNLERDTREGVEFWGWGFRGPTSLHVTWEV
T2 sequence (P0DPQ7 whole entry F169A/H210Q): as above

Consider `COc1cccc(O)c1O` [3MC, 3-methoxycatechol], for which, on GcoA-F169A and GcoB (100 μM substrate + 100 μM NADH), the “% Formaldehyde produced” value was 52 ± 7%. The “Coupling efficiency” value on GcoA-F169A and GcoB is recorded as 64±10%. Besides, the “Rate of organic substrate consumption (HPLC)” value on GcoA-F169A is 2.6±0.3 μM s^−1 μmol GcoA-F169A^−1.
Taken in the same sequence, the figures for `COc1ccccc1O` [guaiacol, 2-methoxyphenol] were 100 ± 10%, 91±8% and 5.3±0.3 μM s^−1 μmol GcoA-F169A^−1.
As for `COc1cccc(OC)c1O` [syringol, 2,6-dimethoxyphenol], the “% Formaldehyde produced” value turned out to be 125 ± 6% at GcoA-F169A and GcoB (100 μM substrate + 100 μM NADH); 91 ± 8% on GcoA-F169A and GcoB (100 μM substrate + 200 μM NADH). In addition, the “Rate of organic substrate consumption (HPLC)” value on GcoA-F169A is 4.1±0.3 μM s^−1 μmol GcoA-F169A^−1.

Values taken from patent US11208642B2, “Microbial syringol utilization” (Alliance for Sustainable Energy, LLC, priority 2018, dated 2021).
